In US20080132415A1, “Method For Increasing Maize Yields” (priority 2004, published 2008):
Like-named read-outs stand apart in the source and are kept apart here. Marks after values point to notes of the source that are not given here.

What was measured:
[1] = tested on: corn hybrids Pioneer 33K81 and Pioneer 33P66; assay: Field study of isoxadifen with postemergence corn herbicides (Example 1), both hybrids or hybrid not stated; assay type: in vivo
[2] = tested on: Golden Harvest hybrid corn; assay type: in vivo
Description: The hybrid corn species Golden Harvest was used in the study.
On one or more of the herbicides were used in combination with the insecticide chlorpyrifos—841 g/ha and with or without isoxadifen—37 g/ha.
A CO2 backpack sprayer was used to apply the compounds at 187 L/ha at 247 kPa.

[3] = tested on: Pioneer 33K81 hybrid corn; assay: Field study of isoxadifen with postemergence corn herbicides (Example 1), hybrid Pioneer 33K81; assay type: in vivo
Description: Timing of the application of the compounds was at the V6 growth stage (i.e., when there were six visible collars of the corn). Additionally, methylated seed oil (MSO)+28% ureas and ammonium sulfate (UAN) were applied at a concentration of 1% v/v+2.5% v/v.

[4] = tested on: Pioneer 33P66 hybrid corn; settings: applied at V6 growth stage at 1x field use rates, isoxadifen 37 g/ha where included
Experimental: The study was conducted in Bloomington, DeKalb and Urbana, Ill. to evaluate the crop response when isoxadifen was used with postemergence corn herbicides. Two hybrid corn species with different levels of tolerance were used in the study: Pioneer 33K81, a species sensitive to plant growth regulators (PGRs), isoxazole, amides and sulfonylureas (SUs); and Pioneer 33P66, a tolerant species. Plots were kept weed-free to eliminate any competition from weeds.
The following herbicides and their respective field use rates were used in the study:
rimsufuron—26 g/ha; nicosulfuron+rimsulfuron—39 g/ha; foramsulfuron—37 g/ha; diflufenzopyr+dicamba—294 g/ha; mesotrione—105 g/ha; and dicamba—560 g/ha. One or more of the herbicides were used with or without isoxadifen—37 g/ha. All herbicides were applied at the 1× labeled field use rates.
Timing of the application of the compounds was at the V6 growth stage (i.e., when there were six visible collars of the corn). Additionally, methylated seed oil (MSO)+28% […] (UAN) were applied at a concentration of 1% v/v+2.5% v/v.

[5] = herbicide in combination with chlorpyrifos 841 g/ha and isoxadifen 37 g/ha, seven days post application
[6] = herbicide in combination with chlorpyrifos 841 g/ha, without isoxadifen, seven days post application
[7] = herbicide in combination with chlorpyrifos, without isoxadifen
[8] = percentage of control, herbicide in combination with chlorpyrifos 841 g/ha and isoxadifen 37 g/ha
[9] = percentage of control, herbicide in combination with chlorpyrifos 841 g/ha, without isoxadifen

Structure (SMILES)	difference in adding isoxadifen ([1]; hybrid not stated, data not shown)	CORN INJURY Chlor + Isoxadifen [2, 5]	CORN INJURY Chlorpyrifos [2, 6]	corn injury compared to the application of the same combination and isoxadifen [2, 7]	corn yield compared to the application of the same combination and isoxadifen [2, 7]	CORN YIELD Chlor + Isoxadifen [2, 8]	CORN YIELD Chlorpyrifos [2, 9]	PERCENTAGE OF CORN INJURY Pioneer 33K81 ([3]; 7 days post application, applied at V6 growth stage at 1x field use rates, isoxadifen 37 g/ha where included)	CORN YIELD - PERCENTAGE OF CONTROL Pioneer 33K81 ([3]; percentage of control, applied at V6 growth stage at 1x field use rates, isoxadifen 37 g/ha where included)	PERCENTAGE OF CORN INJURY Pioneer 33P66 ([4]; 7 days post application)	CORN YIELD - PERCENTAGE OF CONTROL Pioneer 33P66 ([4]; percentage of control)	crop injury when tank-mixed with isoxadifen, compared with the same herbicide without isoxadifen ([1]; both hybrids, 7 days after treatment)	CORN INJURY Chlor + Isoxadifen ([2]; in vivo)	CORN INJURY Chlorpyrifos ([2]; in vivo)	CORN YIELD Chlor + Isoxadifen ([2]; in vivo)	CORN YIELD Chlorpyrifos ([2]; in vivo)	corn injury compared to the application of the same combination and isoxadifen ([2]; in vivo)	corn yield compared to the application of the same combination and isoxadifen ([2]; in vivo)	crop injury when tank-mixed with isoxadifen ([3]; P33K81 hybrid corn, addition of isoxadifen, data not shown)
CS(=O)(=O)c1ccc(C(=O)C2C(=O)CCCC2=O)c([N+](=O)[O-])c1 [Mesotrione, mesotrione]	no significant difference	12 * %	34%	significantly more corn injury	no significant difference	97%	97%	–	–	–	–	–	–	–	–	–	–	–	–
COc1c(Cl)ccc(Cl)c1C(=O)O [Dicamba, dicamba]	–	–	–	–	–	–	–	25%	81%	36%	89%	less crop injury	37 * %	65%	86 * %	75%	significantly more corn injury	significantly smaller corn yield	–
COc1cc(OC)nc(NC(=O)NS(=O)(=O)c2cc(NC=O)ccc2C(=O)N(C)C)n1 [Foramsulfuron, foramsulfuron]	–	37 * %	47%	significantly more corn injury	significantly smaller corn yield	92 * %	82%	–	–	–	–	–	–	–	–	–	–	–	–
CCS(=O)(=O)c1cccnc1S(=O)(=O)NC(=O)Nc1nc(OC)cc(OC)n1 [Rimsulfuron, rimsulfuron]	–	45%	37%	no significant difference	significantly smaller corn yield	95 * %	65%	–	–	–	–	–	–	–	–	–	–	–	less crop injury
